Test results taken from patent US10112899B2 (ViiV HEALTHCARE UK LIMITED, priority 2014, dated 2018).

Test system: HIV in the HTLV-1 transformed cell line MT-4
Assay: organism not typed
Assay type: cell-based
Conditions: MT-4 cells, luciferase/cell titer glo readout after 96 hours, 10 point dose response

Structure (SMILES) | IC50 (MT4, 96 h) | IC50
Cc1c(-c2c(C)c3c(c(C)c2[C@H](OC(C)(C)C)C(=O)O)CN(S(=O)(=O)c2cccc(F)c2)C3)cc(F)c2c1CCCO2 (atropisomer, axis not shown; (M)) [Example 218, (S)-2-(tert-butoxy)-2-((M)-6-(8-fluoro-5-methylchroman-6-yl)-2-((3-fluorophenyl)sulfonyl)-4,7-dimethylisoindolin-5-yl)acetic acid] | 11 nM | –
Cc1ccc(-c2c(C)c3c(c(C)c2[C@H](OC(C)(C)C)C(=O)O)CN(C(=O)c2cc(F)cc(C(N)=O)c2)C3)cc1 [Example 266, (S)-2-(tert-butoxy)-2-(2-(3-carbamoyl-5-fluorobenzoyl)-4,7-dimethyl-6-(p-tolyl)isoindolin-5-yl)acetic acid] | 126 nM | –
Cc1ccc(-c2c(C)c3c(c(C)c2[C@H](OC(C)(C)C)C(=O)O)CN(C(=O)c2cccnc2)C3)cc1 [Example 268, (S)-2-(tert-butoxy)-2-(4,7-dimethyl-2-nicotinoyl-6-(p-tolyl)isoindolin-5-yl)acetic acid] | 14 nM | –
Cc1ccc(-c2c(C)c3c(c(C)c2[C@H](OC(C)(C)C)C(=O)O)CN(C(=O)c2cc(F)cc(F)c2)C3)cc1 [Example 119, (S)-2-(tert-butoxy)-2-(2-(3,5-difluorobenzoyl)-4,7-dimethyl-6-(p-tolyl)isoindolin-5-yl)acetic acid] | 3 nM | –
COc1cncc(C(=O)N2Cc3c(C)c(-c4cc(F)c5c(c4C)CCCO5)c([C@H](OC(C)(C)C)C(=O)O)c(C)c3C2)c1 (atropisomer, axis not shown; (M)) [Example 143, (S)-2-(tert-butoxy)-2-((M)-6-(8-fluoro-5-methylchroman-6-yl)-2-(5-methoxynicotinoyl)-4,7-dimethylisoindolin-5-yl)acetic acid] | 4 nM | –
Cc1ccc(-c2c(C)c3c(c(C)c2C(OC(C)(C)C)C(=O)O)CN(Cc2ccccc2)C3)cc1 (centres unmarked) [Example 9, 2-(2-Benzyl-4,7-dimethyl-6-(p-tolyl)isoindolin-5-yl)-2-(tert-butoxy)acetic acid] | 98 nM | –
Cc1c(-c2c(C)c3c(c(C)c2[C@H](OC(C)(C)C)C(=O)O)CN(C(=O)c2cccc4c2OC(F)(F)O4)C3)cc(F)c2c1CCCO2 (atropisomer, axis not shown; (M)) [Example 162, (S)-2-(tert-butoxy)-2-((M)-2-(2,2-difluorobenzo[d][1,3]dioxole-4-carbonyl)-6-(8-fluoro-5-methylchroman-6-yl)-4,7-dimethylisoindolin-5-yl)acetic acid] | 2 nM | –
Cc1ccc(-c2c(C)c3c(c(C)c2[C@H](OC(C)(C)C)C(=O)O)CN(C(=O)N2CCC(F)(F)CC2)C3)cc1 [Example 92, (S)-2-(tert-butoxy)-2-(2-(4,4-difluoropiperidine-1-carbonyl)-4,7-dimethyl-6-(p-tolyl)isoindolin-5-yl)acetic acid] | 16 nM | –
Cc1ccc(-c2c(C)c3c(c(C)c2[C@H](OC(C)(C)C)C(=O)O)CN(C(=O)c2ccnn2C)C3)cc1 [Example 223, (S)-2-(tert-butoxy)-2-(4,7-dimethyl-2-(1-methyl-1H-pyrazole-5-carbonyl)-6-(p-tolyl)isoindolin-5-yl)acetic acid] | 13 nM | –
Cc1ccc(-c2c(C)c3c(c(C)c2[C@H](OC(C)(C)C)C(=O)O)CN(C(=O)NCC2CCCCC2)C3)cc1 [Example 58, (2S)-2-(tert-butoxy)-2-{2-[(cyclohexylmethyl)carbamoyl]-4,7-dimethyl-6-(4-methylphenyl)-2,3-dihydro-1H-isoindol-5-yl}acetic acid] | 350 nM | –
Cc1ccc(-c2c(C)c3c(c(C)c2[C@H](OC(C)(C)C)C(=O)O)CN(C(=O)NCCOCc2ccccc2)C3)cc1 [Example 79, (2S)-2-(2-{[2-(benzyloxy)ethyl]carbamoyl}-4,7-dimethyl-6-(4-methylphenyl)-2,3-dihydro-1H-isoindol-5-yl)-2-(tert-butoxy)acetic acid] | 231 nM | –
Cc1c(-c2c(C)c3c(c(C)c2[C@H](OC(C)(C)C)C(=O)O)CN(C(=O)c2ccc(F)c(F)c2)C3)cc(F)c2c1CCCO2 (atropisomer, axis not shown; (M)) [Example 186, (S)-2-(tert-butoxy)-2-((M)-2-(3,4-difluorobenzoyl)-6-(8-fluoro-5-methylchroman-6-yl)-4,7-dimethylisoindolin-5-yl)acetic acid] | 2 nM | –
Cc1ccc(-c2c(C)c3c(c(C)c2[C@H](OC(C)(C)C)C(=O)O)CN(Cc2ccc(F)c(F)c2)C3)cc1 [Example 53, (2S)-2-(tert-butoxy)-2-{2-[(3,4-difluorophenyl)methyl]-4,7-dimethyl-6-(4-methylphenyl)-2,3-dihydro-1H-isoindol-5-yl}acetic acid] | 51 nM | –
Cc1ccc(F)cc1C(=O)N1Cc2c(C)c(-c3cc(F)c4c(c3C)CCCO4)c([C@H](OC(C)(C)C)C(=O)O)c(C)c2C1 [Example 136, (S)-2-(tert-butoxy)-2-((R)-2-(5-fluoro-2-methylbenzoyl)-6-(8-fluoro-5-methylchroman-6-yl)-4,7-dimethylisoindolin-5-yl)acetic acid] | 2 nM | –
Cc1ccc(-c2c(C)c3c(c(C)c2[C@H](OC(C)(C)C)C(=O)O)CN(C(=O)c2cccc4c2ccn4C)C3)cc1 [Example 165, (S)-2-(tert-butoxy)-2-(4,7-dimethyl-2-(1-methyl-1H-indole-4-carbonyl)-6-(p-tolyl)isoindolin-5-yl)acetic acid] | 108 nM | –
Cc1c(-c2c(C)c3c(c(C)c2[C@H](OC(C)(C)C)C(=O)O)CN(C(=O)c2cccc(F)c2)C3)ccc2c1NCCO2 [Example 311, (2S)-2-(tert-butoxy)-2-(2-(3-fluorobenzoyl)-4,7-dimethyl-6-(5-methyl-3,4-dihydro-2H-benzo[b][1,4]oxazin-6-yl)isoindolin-5-yl)acetic acid] | – | 15 nM
Cc1ccc(-c2c(C)c3c(c(C)c2[C@H](OC(C)(C)C)C(=O)O)CN(S(=O)(=O)c2ccc(F)cc2)C3)cc1 [Example 49, (2S)-2-(tert-butoxy)-2-[2-(4-fluorobenzenesulfonyl)-4,7-dimethyl-6-(4-methylphenyl)-2,3-dihydro-1H-isoindol-5-yl]acetic acid] | 100 nM | –
Cc1c(-c2c(C)c3c(c(C)c2[C@H](OC(C)(C)C)C(=O)O)CN(C(=O)c2ccccc2)C3)cc(F)c2c1CCCO2 (atropisomer, axis not shown; (M)) [Example 158, (S)-2-(2-benzoyl-6-((M)-8-fluoro-5-methylchroman-6-yl)-4,7-dimethylisoindolin-5-yl)-2-(tert-butoxy)acetic acid] | 2 nM | –
COc1c(F)cccc1C(=O)N1Cc2c(C)c(-c3cc(F)c4c(c3C)CCCO4)c([C@H](OC(C)(C)C)C(=O)O)c(C)c2C1 (atropisomer, axis not shown; (M)) [Example 195, (S)-2-(tert-butoxy)-2-((M)-2-(3-fluoro-2-methoxybenzoyl)-6-(8-fluoro-5-methylchroman-6-yl)-4,7-dimethylisoindolin-5-yl)acetic acid] | 3 nM | –
Cc1ccc(-c2c(C)c3c(c(C)c2[C@H](OC(C)(C)C)C(=O)O)CN(C(=O)N2CCCC(C)(C)C2)C3)cc1 [Example 93, (S)-2-(tert-butoxy)-2-(2-(3,3-dimethylpiperidine-1-carbonyl)-4,7-dimethyl-6-(p-tolyl)isoindolin-5-yl)acetic acid] | 7 nM | –
Cc1c(-c2c(C)c3c(c(C)c2[C@H](OC(C)(C)C)C(=O)O)CN(C(=O)c2cccc(Cl)c2)C3)cc(F)c2c1CCCO2 (atropisomer, axis not shown; (M)) [Example 147, (S)-2-(tert-butoxy)-2-((M)-2-(3-chlorobenzov)-6-(8-fluoro-5-methylchroman-6-yl)-4,7-dimethylisoindolin-5-yl)acetic acid] | 13 nM | –
Cc1ccc(-c2c(C)c3c(c(C)c2[C@H](OC(C)(C)C)C(=O)O)CN(C(=O)c2cccc4sccc24)C3)cc1 [Example 166, (S)-2-(2-(benzo[b]thiophene-4-carbonyl)-4,7-dimethyl-6-(p-tolyl)isoindolin-5-yl)-2-(tert-butoxy)acetic acid] | 27 nM | –
Cc1cc(C(=O)N2Cc3c(C)c(-c4cc(F)c5c(c4C)CCCO5)c([C@H](OC(C)(C)C)C(=O)O)c(C)c3C2)ccc1F (atropisomer, axis not shown; (M)) [Example 145, (S)-2-(tert-butoxy)-2-((M)-2-(4-fluoro-3-methylbenzoyl)-6-(8-fluoro-5-methylchroman-6-yl)-4,7-dimethylisoindolin-5-yl)acetic acid] | 2 nM | –
Cc1ccc(-c2c(C)c3c(c(C)c2[C@H](OC(C)(C)C)C(=O)O)CN(CC(=O)N2CCCCC2)C3)cc1 [Example 127, (S)-2-(tert-butoxy)-2-(4,7-dimethyl-2-(2-oxo-2-(piperidin-1-yl)ethyl)-6-(p-tolyl)isoindolin-5-yl)acetic acid] | 318 nM | –
Cc1ccc(-c2c(C)c3c(c(C)c2[C@H](OC(C)(C)C)C(=O)O)CN(C(=S)N2CCCCC2)C3)cc1 [Example 131, (S)-2-(tert-butoxy)-2-(4,7-dimethyl-2-(piperidine-1-carbonothioyl)-6-(p-tolyl)isoindolin-5-yl)acetic acid] | 19 nM | –
Cc1ccc(-c2c(C)c3c(c(C)c2[C@H](OC(C)(C)C)C(=O)O)CN(C(=O)C2CCC(F)(F)CC2)C3)cc1 [Example 111, (S)-2-(tert-butoxy)-2-(2-(4,4-difluorocyclohexanecarbonyl)-4,7-dimethyl-6-(p-tolyl)isoindolin-5-yl)acetic acid] | 16 nM | –
Cc1ccc(-c2c(C)c3c(c(C)c2[C@H](OC(C)(C)C)C(=O)O)CN(CCCc2cccc(F)c2)C3)cc1 [Example 38, (2S)-2-(tert-butoxy)-2-{2-[3-(3-fluorophenyl)propyl]-4,7-dimethyl-6-(4-methylphenyl)-2,3-dihydro-1H-isoindol-5-yl}acetic acid] | 1230 nM | –
Cc1ccc(-c2c(C)c3c(c(C)c2[C@H](OC(C)(C)C)C(=O)O)CN(Cc2ccc(F)cc2)C3)cc1 [Example 2, (S)-2-(tert-Butoxy)-2-(2-(4-fluorobenzyl)-4,7-dimethyl-6-(p-tolyl)isoindolin-5-yl)acetic acid] | 36 nM | –
COc1cccc(CN2Cc3c(C)c(-c4ccc(C)cc4)c([C@H](OC(C)(C)C)C(=O)O)c(C)c3C2)c1 [Example 24, (S)-2-(tert-butoxy)-2-(2-(3-methoxybenzyl)-4,7-dimethyl-6-(p-tolyl)isoindolin-5-yl)acetic acid] | 12 nM | –
